Series [1] has as its target T1, Human thrombin (Homo sapiens, UniProt P00734).
T1 construct: purchased Haematologic Technologies Inc
In words: Inhibition of the protease activity of thrombin (chromogenic substrate S-2238). Format: biochemical. The settings on record: Table C; 3 nM thrombin, 125 μM S-2238, 10 min pre-incubation, RT.

The test system of series [2] is malignant breast tumors. The settings on record: cited from earlier work.

`O=C(c1ccccc1Cl)n1nc(-c2cccs2)nc1NCc1ccccc1` [Cmpd 409, N-benzyl-1-[(2-chlorophenyl)carbonyl]-3-(thiophen-2-yl)-1H-1,2,4-triazol-5-amine] displayed an IC50 in series [1] below 100 nM.

As for `Cc1ccc(C(=O)n2nc(-c3cccnc3)nc2NCc2ccccc2)cc1` [Cmpd 411, N-benzyl-1-[(4-methylphenyl)carbonyl]-3-(pyridin-3-yl)-1H-1,2,4-triazol-5-amine], in series [1], the IC50 is below 100 nM.

With `O=C(c1cccs1)n1nc(-c2cccs2)nc1NCc1ccccc1` [Cmpd 412, N-benzyl-3-(thiophen-2-yl)-1-[(thiophen-2-yl)carbonyl]-1H-1,2,4-triazol-5-amine], in series [1], the half-maximal inhibitory concentration (IC50) was above 1000 nM.

Take `CCCCCCOC(=O)NC(=N)c1ccc(NCc2nc3cc(C(=O)N(CCC(=O)OCC)c4ccccn4)ccc3n2C)cc1` [dabigatran etexilate]: the “reduction in tumor volume” value in series [2] (at 4 weeks, treated mice) is listed as 50%. Besides, the “weight loss in treated mice” value in series [2] (at 4 weeks) is “no weight loss”. In addition, in series [2] (treated mice), the “reduced tumor cells in the blood and liver micrometastases” value was 50-60%.

Values taken from patent publication US20170326125A1, “MULTISUBSTITUTED AROMATIC COMPOUNDS AS INHIBITORS OF THROMBIN” (VERSEON CORPORATION, priority 2016, published 2017).
